Molecules are shown by their SMILES. Calls of active or inactive are those of the source. The rule behind the calls is not given here.

System in one experiment: not listed separately
Nature of the experiment: glycosylation-insensitive luciferase reporter activation – D54 LucT cells, dry powder, set 2, counter-screen for N-linked glycosylation inhibitor project, dose response (AID 1053120). The settings on record: D54 LucT luciferase reporter (no NLG), luminescence, 24 h; at 19.5 µM (top of the series). A general note: Reporter assays use an easily measured gene product as a stand-in for the process of interest.
For the compound `CCCCOc1ccccc1C1CC(=O)NC2=C1C(=O)CCC2` (configuration not stated), the luciferase activation was 0% (inactive).
As for `Cc1cnc(NC(=O)c2cc(S(=O)(=O)N3CCCC3)ccc2N2CCCC2)s1`, the luciferase activation was -20% (inactive).
For the compound `CC(=O)c1ccc(Oc2cc(C)nc(-n3nc(C)cc3C)n2)cc1`, the luciferase activation is 0% (inactive).
As to `COc1cc(Nc2c3c(nc4ccccc24)CCCC3)cc(OC)c1OC`, the luciferase activation is 0% (inactive).
As for `COc1ccc(CSc2nnc(-c3ccccc3)o2)cc1`, the luciferase activation was 50% (inactive).
As to `Cc1ccc(CCC(=O)Nc2ncc(Cc3cc(Cl)ccc3Cl)s2)o1`, the luciferase activation is -33.3% (inactive).
Same read-out and setting: for `COc1ccccc1OCC(=O)NNC(=O)c1ccoc1C` the value was 33.3% (inactive).
Take `Cc1cnc(NC(=O)c2cc(S(=O)(=O)N(C)C)ccc2N2CCC2)s1`: the luciferase activation is -20% (inactive).
For the compound `Cc1cccc(C)c1OCCNC(=O)C(=O)NCc1ccco1`, the luciferase activation was 33.3% (inactive).
Regarding `Cc1cc(C)nc(/N=C(\N)Nc2ccc(OCc3ccccc3)cc2)n1`, the luciferase activation is -33.3% (inactive).
Same read-out and setting: for `C/C(=N\NC(=O)c1c([N+](=O)[O-])c(C)nn1C)c1ccc(NC(=O)C2CCCC2)cc1` the value was 0% (inactive).
On to `Cc1ccc(NC(=O)c2cc(S(=O)(=O)N(C)C)ccc2N2CCCC2)cc1`, for which the luciferase activation is 0% (inactive).
As for `O=C(Cc1ccccc1)c1nnc(-c2ccccc2)o1`, the luciferase activation was 33.3% (inactive).
Regarding `CC(=O)N[C@H]1[C@@H](O[C@@H]2OC(C[C@@H](O)C3O[C@@H](n4ccc(=O)[nH]c4=O)[C@H](O)[C@@H]3O)[C@H](O)[C@H](O)[C@H]2NC(=O)/C=C/CCCCCCCCCCC(C)C)O[C@H](CO)[C@@H](O)[C@@H]1O` (some centres not stated), the luciferase activation was -50% (inactive).
Still for that read-out and setting: for `Cc1ccc2cc(CN(CCCN(C)C)C(=O)Nc3ccccc3)c(=O)[nH]c2c1C` the value was 0% (inactive); for `Cc1cnc(NC(=O)c2cc(S(=O)(=O)N3CCOCC3)ccc2N2CCCC2)s1`, -20% (inactive); for `COc1ccc2nc(NC(=O)c3cc(S(=O)(=O)N(C)C)ccc3N3CCCC3)sc2c1`, 0% (inactive).
As for `CCOC(=O)COc1cccc2c(=O)n(CC(=O)NCc3ccccc3)ccc12`, the luciferase activation was 0% (inactive).
`COc1cc(C(=O)NCCOc2cc(C)cc(C)c2)cc(OC)c1OC`: the luciferase activation was 33.3% (inactive).
For the compound `Cc1cc(NC(=O)CSc2nc(-c3ccco3)cc(C(F)(F)F)n2)no1`, the luciferase activation is 0% (inactive).
On the same count and under the same terms, for `Cc1ccc(Oc2ccc(S(=O)(=O)N3CCOCC3)cc2C(N)=O)c(-n2nc3ccccc3n2)c1` the value was 33.3% (inactive); for `Cc1cc(C)cc(C(=O)N2CC(=O)Nc3ccccc32)c1`, 33.3% (inactive).
As to `CN(C)S(=O)(=O)c1ccc(N2CCCC2)c(C(=O)Nc2nc3ccccc3s2)c1`, the luciferase activation was 0% (inactive).
In the case of `Cc1cc(=O)[nH]c(N/N=C/c2cc(C)n(CC(F)(F)F)c2C)n1`, the luciferase activation is 0% (inactive).
On to `CCN(CC)CCC(=O)Nc1cccc2c1C(=O)c1ccccc1C2=O`, for which the luciferase activation is -33.3% (inactive).
For `Cc1cnc(NC(=O)c2cc(S(=O)(=O)N3CCCCC3)ccc2N2CCCC2)s1`, the luciferase activation is 50% (inactive).
Regarding `Cc1ccc(C(=O)c2cc([N+](=O)[O-])ccc2N2CCOCC2)cc1C`, the luciferase activation was 66.7% (inactive).
Regarding `CCCOC(=O)c1[nH]c2c(c1C)C(=O)CC(c1cccs1)C2` (configuration not stated), the luciferase activation is 50% (inactive).
In the case of `COc1cccc2sc(NC(=O)c3cc(S(=O)(=O)N(C)C)ccc3N3CCCC3)nc12`, the luciferase activation is -50% (inactive).
Regarding `CC(=O)N1CCC(=O)c2cc3ccccc3cc21`, the luciferase activation is 33.3% (inactive).
For `Cc1ccc2cc(CN(CCCN(C)C)C(=O)NCc3ccccc3)c(=O)[nH]c2c1C`, the luciferase activation is 50% (inactive).
For the compound `COc1ccc2sc(NC(=O)c3cc(S(=O)(=O)N(C)C)ccc3N3CCCC3)nc2c1`, the luciferase activation is -50% (inactive).
`COc1ccc(NC(=O)C(=O)c2cn(CC(=O)N3CCCC3)c3ccccc23)cc1`: the luciferase activation is -33.3% (inactive).
`CCC1=Nc2cc(C(=O)NCCCOC)ccc2Sc2ccccc21`: the luciferase activation was -33.3% (inactive).
For the compound `CN(C)S(=O)(=O)c1ccc(N2CCCC2)c(C(=O)Nc2ccccc2)c1`, the luciferase activation was 20% (inactive).
On the same count and under the same terms, for `CCOc1ccc(S(=O)(=O)NCc2ccccn2)cc1NC(=O)c1ccccc1F` the value was 0% (inactive).
On the same count and under the same terms, for `Brc1ccc(CSc2nnc(-c3ccccc3)o2)cc1` the value was 0% (inactive); for `CCn1c2ccccc2c2cc(NC(=O)c3cc(OC)c(OC)c(OC)c3)ccc21`, -33.3% (inactive); for `CCN(CC)CCOc1ccc2c(c1)C(=NNC(=O)c1ccccn1)c1cc(OCCN(CC)CC)ccc1-2`, -33.3% (inactive).
Turning to `COc1cccc(N2CCN(C(=O)c3ccc(CS(=O)c4ccc(C)cc4)o3)CC2)c1` (configuration not stated), the luciferase activation is 0% (inactive).
Regarding `Cc1csc(NC(=O)c2cc(S(=O)(=O)N(C)C)ccc2N2CCCC2)n1`, the luciferase activation was 50% (inactive).
For `Cc1cnc(NC(=O)c2cc(S(=O)(=O)N(C)C)ccc2N2CCCC2)s1`, the luciferase activation is 0% (inactive).
Take `CN(C)CCCN(Cc1cc2ccccc2[nH]c1=O)C(=O)NCc1ccccc1`: the luciferase activation is 0% (inactive).
For the compound `CN(C)S(=O)(=O)c1ccc(N2CCCC2)c(C(=O)Nc2nccs2)c1`, the luciferase activation is 20% (inactive).
For the compound `CC(=O)c1cccc(NC(=O)CSc2ncc(C(=O)Nc3ccccc3)c(=O)n2C)c1`, the luciferase activation is 33.3% (inactive).
For the compound `CCOc1ccc(NC(=O)c2cc(OC)nc3ccccc23)cc1`, the luciferase activation is 0% (inactive).
As to `CCN(CC)CCCNc1nc2cc(OC)c(OC)cc2c2nc(-c3ccccc3)nn12`, the luciferase activation was -33.3% (inactive).
Still for that read-out and setting: for `O=C1CCNc2cc3ccccc3cc21` the value was -66.7% (inactive); for `COc1ccc2c(COC(=O)c3cccc(S(=O)(=O)NCC(C)C)c3)cc(=O)oc2c1`, 66.7% (inactive); for `CN(C)CCCN(Cc1cc2ccccc2[nH]c1=O)C(=O)Nc1ccccc1`, 20% (inactive).
Consider `O=C1CCN(Cc2ccccc2)c2cc3ccccc3cc21`, for which the luciferase activation was 0% (inactive).
In the case of `Cc1[nH][nH]c(=O)c1C(c1ccc(-c2ccc(Cl)c(Cl)c2)o1)c1c(C)[nH][nH]c1=O`, the luciferase activation was 0% (inactive).

Another experiment has as its system D54 LucT luciferase reporter (no NLG), luminescence, 24 h. Described as above.
Details: not given
Consider `Cc1ccc(/C=N/NC(=O)C2COc3ccccc3O2)s1` (configuration not stated), for which the AC40 was 15300 nM.
In the case of `Nc1nc(=S)c2ncn([C@@H]3O[C@H](CO)[C@@H](O)[C@H]3O)c2[nH]1`, the AC40 was 5190 nM.
As for `O=C(N/N=C/c1ccc(Cl)cc1)c1sccc1OCc1ccc(F)cc1`, the AC40 was 1600 nM.
Regarding `CCCNS(=O)(=O)c1cccc(C(=O)OCc2cc(=O)oc3cc(OC)ccc23)c1`, the AC40 was 2140 nM.
As to `COc1ccc(-c2nnc(SCc3ccccc3)o2)cc1`, the AC40 was 5120 nM.
In the case of `COc1ccccc1-c1nnc(SCc2ccccc2)o1`, the AC40 is 632 nM.
For the compound `COc1cc(-c2nnc(SCC3(c4ccc(Br)cc4)OCCO3)o2)cc(OC)c1OC`, the AC40 is 930 nM.
For the compound `COc1ccccc1CSc1nnc(-c2ccccc2)o1`, the AC40 was 845 nM.
Consider `CCOC(=O)c1ccc(Oc2cc(C)nc(SC)n2)cc1`, for which the AC40 is 3390 nM.
For `COC(=O)c1cn(C(=O)c2ccc(OC)cc2)c2ccccc12`, the AC40 is 15400 nM.

The values are drawn from PubChem BioAssay AID1053120 (Broad Institute, 2014).
